Assay results published in ChEMBL document CHEMBL1126402, “The design and biological evaluation of a series of 3-hydroxy-3-methylglutaryl coenzyme a (HMG-CoA) reductase inhibitors related to dihydromevinolin” (Bioorg Med Chem Lett, 1992).
Activity calls are given as the source filed them. The rule behind the calls is not given here.

Legend:
[1] = target: T1, 3-hydroxy-3-methylglutaryl-coenzyme A reductase (Rattus norvegicus, UniProt P51639); assay: Inhibition of microsomal rat liver HMG-CoA reductase
T1 sequence (P51639 whole entry): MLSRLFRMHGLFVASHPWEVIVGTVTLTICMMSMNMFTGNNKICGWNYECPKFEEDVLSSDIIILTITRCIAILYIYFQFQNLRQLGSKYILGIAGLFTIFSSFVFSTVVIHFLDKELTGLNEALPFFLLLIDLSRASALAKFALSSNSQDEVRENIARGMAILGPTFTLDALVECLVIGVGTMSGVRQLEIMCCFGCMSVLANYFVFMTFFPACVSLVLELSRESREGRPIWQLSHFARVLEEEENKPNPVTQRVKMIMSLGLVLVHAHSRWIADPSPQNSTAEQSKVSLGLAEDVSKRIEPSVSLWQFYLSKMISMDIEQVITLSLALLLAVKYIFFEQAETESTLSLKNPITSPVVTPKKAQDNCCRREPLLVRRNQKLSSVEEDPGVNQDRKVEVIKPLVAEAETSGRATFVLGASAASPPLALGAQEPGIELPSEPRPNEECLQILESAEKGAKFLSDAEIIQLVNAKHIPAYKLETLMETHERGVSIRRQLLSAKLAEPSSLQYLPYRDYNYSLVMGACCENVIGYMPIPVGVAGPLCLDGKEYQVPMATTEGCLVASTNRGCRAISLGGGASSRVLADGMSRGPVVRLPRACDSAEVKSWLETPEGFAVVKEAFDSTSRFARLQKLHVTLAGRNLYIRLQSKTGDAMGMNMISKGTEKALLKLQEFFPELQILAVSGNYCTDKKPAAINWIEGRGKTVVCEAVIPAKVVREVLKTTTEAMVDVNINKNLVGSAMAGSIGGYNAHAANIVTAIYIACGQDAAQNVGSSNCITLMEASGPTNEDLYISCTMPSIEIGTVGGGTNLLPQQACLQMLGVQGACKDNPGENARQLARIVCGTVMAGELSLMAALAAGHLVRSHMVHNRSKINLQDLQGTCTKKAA

[2] = Selectivity in vivo against rat assay; NS - no significant difference between organs; format: functional, organism-based
[3] = Selectivity in vivo against rat assay; A - greater inhibition in liver than in spleen, testes, kidney; format: functional, organism-based

| IC50 [1] [nM] | SMILES | Selectivity [2] | Selectivity [3] |
| --- | --- | --- | --- |
| 15 | CC/C=C/[C@@H]1C[C@H](OC(=O)C(C)(C)CC)[C@@H]2[C@@H](CC[C@@H]3C[C@@H](O)CC(=O)O3)[C@@H](C)C=C[C@H]2C1 | – | – |
| 1500 | C/C=C\[C@@H]1C[C@H](OC(C)=O)[C@@H]2[C@@H](CC[C@@H]3C[C@@H](O)CC(=O)O3)[C@@H](C)C=C[C@H]2C1 | – | – |
| 8 | CCC/C(C)=C/[C@@H]1C[C@H](OC(=O)C(C)(C)CC)[C@@H]2[C@@H](CC[C@@H]3C[C@@H](O)CC(=O)O3)[C@@H](C)C=C[C@H]2C1 | inactive | – |
| 80 | CCC(C)C(=O)O[C@H]1C[C@@H](C)C[C@@H]2C=C[C@H](C)[C@H](CCC(=O)C[C@@H](O)CC(=O)OC)[C@@H]12 (stereo partly specified) | – | – |
| 1500 | CCC(C)C(=O)O[C@H]1C[C@@H](C)C[C@@H]2C=CC[C@H](CC[C@@H]3C[C@@H](O)CC(=O)O3)[C@@H]12 (stereo partly specified) | – | – |
| 11 | CC[C@H](C)C(=O)O[C@H]1C[C@@H](C)C=C2C=C[C@H](C)[C@H](CC[C@@H]3C[C@@H](O)CC(=O)O3)[C@H]21 [LOVASTATIN] | – | A |
| 20 | CCC/C(C)=C/[C@@H]1C[C@H](OC(=O)[C@@H](C)CC)[C@@H]2[C@@H](CC[C@@H]3C[C@@H](O)CC(=O)O3)[C@@H](C)C=C[C@H]2C1 | inactive | – |
| 100 | C/C=C/[C@@H]1C[C@H](OC(=O)C(C)(C)CC)[C@@H]2[C@@H](/C=C/[C@@H]3C[C@@H](O)CC(=O)O3)[C@@H](C)C=C[C@H]2C1 | – | – |
